Results reported in patent US7795305B2, “CDDO-compounds and combination therapies thereof” (Board of Regents, The University of Texas System, priority 2000, dated 2010).

Experiments:
NB4 cells = assay: Cell surface Fas/CD95 expression by flow cytometry; type: cell-based, human; conditions: 0.5 μM, 48 hours (24.8 in DMSO-treated cells)
Description: Immunophenotyping. The PE-conjugated anti-CD11b, FITC-conjugated anti-CD14 monoclonal antibody (mAb) (Becton Dickinson) and PE-conjugated anti-CD95 mAb (PharMingen) were used at a 1/10 dilution. The percentage of positive cells was calculated by subtracting the percentage of cells with a fluorescence intensity greater than the set marker using the isotype control (background) from the percentage of cells with a fluorescence intensity greater than the same marker using the specific antibody.
Mechanisms of CDDO-induced apoptosis in leukemia cell lines and in primary AML samples were also determined. The involvement of the death receptor/Fas pathway was studied in NB4 cells. Treatment with 0.5 μM CDDO induced cell surface Fas/CD95 expression at 48 hours (MFI 34.8 vs 24.8 in DMSO-treated cells and 26 in untreated control). At this concentration, 22.3% of cells were annexin V positive compared with 11.4% in DMSO-controls. At 1 μM, 56.3% of cells were apoptotic. Similarly, 1 μM CDDO induced Fas expression in 7/12 AML CD34+ cells (MFI, 22.3±3.5 in DMSO-controls, 40±4.3 in CDDO-treated CD34+ cells, p<0.01).

U937 cells = assay: Mitochondrial membrane potential; type: cell-based, human
Description: Cytofluorometric analysis of the Δψm. To evaluate the Δψm, cells were incubated with the cationic lipophilic dye […] (CMXRos; 150 nM; Molecular Probes, Inc., Eugene, Oreg.). CMXRos is incorporated into mitochondria driven by the […] and reacts with thiol residues to form covalent thiol ester bonds. CMXRos fluorescence was recorded by flow cytometry in the FL3 channel. Background values of the apoptosis of control cells cultured without the CDDO-Me or in DMSO-solvent control (<10% CMXRos-low) were subtracted from the values obtained under the experimental conditions.
An early mitochondrial disruption has been observed in a number of different models of apoptosis. Changes in the cellular content of the cationic lipophilic fluorochrome CMXRos were determined by FACS analysis to measure loss of the mitochondrial membrane potential (Δψ) (Macho et al., 1996). […] Similarly, exposure of HL-60 to CDDO-Me (1 μM) for 2 and 4 hrs increased the number of cells with low JC-1 (57 and 60%) or CMXRos staining (46 and 57%), both assays measuring the decrease in Δψ. CDDO-Me-induced changes in the mitochondrial membrane potential of the cells preceded caspase activation and changes in the composition of the plasma membrane. […]

U937/wt = assay: Viability of Bcl-2 transfectants; type: cell-based, human; conditions: 0.1 μM
Description: Cell lines. HL-60, KG-1, U937, and Jurkat cell lines were obtained from the American Type Culture Collection (Rockville, Md.). NB4 cells were kindly provided by Dr. M. Lanotte. HL-60-doxorubicin-resistant cells (HL-60-DOX) were also used. U937/Bcl-2 and its appropriate vector controls (U937/pCEP) were provided by Dr. S. Grant. U937 cells were transfected with WT, S70A, or S70E cDNA containing cytomegalovirus plasmids by electroporation (200 V, 975 μF capacitance) and selected and maintained in the medium plus 500 μg/mL G418 (Gibco BRL, Gaithersburg, Md.)
The effect of CDDO-Me on Bcl-2 phosphorylation was further investigated by performing metabolic labeling studies with ^32P-orthophosphoric acid. […] To further investigate mechanisms of inhibition of Bcl-2 phosphorylation that could may a role in CDDO-Me-induced cell death, the inventors selected U937 cells that were stably transfected with a serine 70→alanine, Bcl-2 mutant (S70A).

[1] = Murine model of angiogenesis, invasion promoted by ALL BM plasma; type: in vivo; conditions: 0.5 μM, n=8
Description: CDDO-Me. The formation of tube-like endothelial structures that are associated with angiogenesis was analyzed using a Matrigel system (Kubota et al., 1988). Capillary-like structure formation of bone marrow endothelium was inhibited by CDDO-Me. […] Furthermore, in a murine model of angiogenesis, angiogenic invasion promoted by ALL BM plasma was abrogated by CDDO-Me at 0.5 μM (n=8). Thus, CDDO-Me also has anti-angiogenic effects.

U937 and HL-60 cells = assay: Phi-Phi-Lux cleavage with caspase-3 inhibitor Z-DEVD-fmk pre-treatment; type: cell-based, human
Description: Detection of active caspases. The cell-permeable fluorogenic substrate Phi-Phi-Lux-G1D2 was administered to monitor caspase activity according to the manufacturer's recommendations (OncoImmunin, Inc, Kensington, Md.). Briefly, 10^6 cells were resuspended in 5 μL of substrate solution and incubated for 1 hour at 37° C. in the dark. After incubation, cells were washed, and the fluorescence emission was determined using the FL-1 channel of a Becton Dickinson FACScan flow cytometer.
CDDO-Me. […] Effects of CDDO-Me on the cleavage of caspase-3 were analyzed utilizing the fluorogenic substrate of caspase-3 Phi-Phi-Lux.

SMILES	cell surface Fas/CD95 expression, MFI (NB4 cells)	cells with decreased Δψ (U937 cells; CDDO-Me alone) [%]	cells with decreased Δψ (U937 cells; after DEVD pretreatment) [%]	viable cells (U937/wt) [%]	angiogenic invasion promoted by ALL BM plasma [1]	cleavage of Phi-Phi-Lux (U937 and HL-60 cells; CDDO-Me without inhibitor) [%]	cleavage of Phi-Phi-Lux (U937 and HL-60 cells; pre-treatment with 25 μM Z-DEVD-fmk for 1 hour) [%]
CC1(C)CCC2(C(=O)O)CCC3(C)C(C(=O)C=C4C5(C)C=C(C#N)C(=O)C(C)(C)C5CCC43C)C2C1 (stereo not shown) [CDDO, 2-cyano-3,12-dioxoolen-1,9-dien-28-oic acid]	34.8						
COC(=O)[C@]12CCC(C)(C)C[C@H]1[C@H]1C(=O)C=C3[C@@]4(C)C=C(C#N)C(=O)C(C)(C)[C@@H]4CC[C@@]3(C)[C@]1(C)CC2 [CDDO-Me]		40	4	30	abrogated	15.1	2.7
